Data published in US20170172959A1, “D-SERINE FOR THE TREATMENT OF VISUAL SYSTEM DISORDERS” (Allergan, Inc., priority 2011, published 2017).
“Also recorded” adds a separate entry of the source.

Tests used:
[1] = tested on: primary visual cortex of adult rats; test: LTP in visual cortex slice (fEPSP amplitude after theta burst stimulation); type: cell-based; settings: adult Sprague Dawley rat visual cortex slices; compound infused 15 minutes before LTP induction; LTP values at 30 minutes after induction; FIG. 1
Procedure: LTP in Visual Cortex Slice: Following decapitation of the rat, the brain was rapidly removed and immersed in ice-cold artificial cerebrospinal fluid (ACSF) containing 124 mM NaCl, 3 mM KCl, 1.25 mM KH2PO4, 3.4 mM CaCl2, 2.5 mM MgSO4, 26 mM NaHCO3, and 10 mM D-glucose. A block of visual cortex was created by removing the frontal 2/3 portion of the brain and the cerebellum. Coronal visual cortex slices of 375 μm were prepared from adult Sprague Dawley (SD) rats using a vibratome (VT 1000 S, Leica). The slices were maintained in an interface recording chamber perfused with preheated ACSF. Slices were continuously perfused with this solution at a rate of 1.00-1.50 ml/min while the surface of the slices was exposed to warm, humidified 95% O2/5% CO2 and maintained at 31±1° C. Visual cortex slices were allowed to recover for 1 hr before recording began. […] This was repeated 2 additional times with a 1 minute intertrain interval, and the level of LTP was recorded for at least 30 min. Changes in amplitude of the synaptic response were used to measure the extent of LTP because it was determined to be the more consistent parameter than the slope of the response. […] Statistical comparisons were done with LTP values recorded at 30 minutes after induction.

[2] = tested on: blue-light treated Long-Evans rats; test: Contrast sensitivity by sweep VEP in rats with retinal damage induced by blue-light exposure; type: in vivo, rat; settings: 100 or 600 mg/kg injected, saline control, cross-over; measured 30 minutes after treatment; spatial frequency 0.575 cpd; sixteen (600 mg/kg) and fifty weeks (100 mg/kg) after blue-light treatment; FIG. 3
Procedure: Two doses of D-serine were tested and vehicle (saline) was used as a control. Half of the rats were injected with either 100 or 600 mg/kg D-serine and the other half with saline in the first test; cross-over exposure took place one week later; the spatial frequencies were fixed at 0.575 cycles per degree (cpd). In FIG. 3, the mean values of contrast sensitivity are shown for rats treated with D-serine or saline, with a baseline taken prior to treatment (“pre”) and the contrast sensitivity measured 30 minutes after treatment (“post”).
Sweep visually evoked potential (sweep VEP, sVEP), which was first introduced by Regan in 1973, has become an important technique to measure visual function (VF). It is an objective method that can be used to assess contrast sensitivity (CS) in infants, young children and people with special needs. It was adapted to measure CS in animals.
VEP recording: The recording electrodes were permanently implanted into the right visual cortex of Long Evans rats at lambda and 4.5 mm lateral to the midline, to a depth of 800 microns (layer III/IV). […]
Visual stimuli: Stimuli were presented on a CRT computer monitor and consist of full-field sine-wave gratings at fixed special frequency (0.5, 0.575 or 0.65 cpd in FIG. 1 and 0.575 cpd in FIG. 2), reversing at 6.25 Hz. […] Contrast sensitivity (CS) is calculated as 1/CT.

[3] = tested on: slices of kitten visual cortex; settings: Neuroscience Letters 303 (2001) 95-98; cited from earlier work

N[C@H](CO)C(=O)O [D-serine]
long-term potentiation (LTP) in the primary visual cortex [1]: dose-dependently facilitates long-term potentiation (LTP); also recorded: significantly enhanced the LTP | contrast sensitivity [2]: improved the contrast sensitivity; also recorded: dose-dependent improvement in contrast sensitivity; also recorded: enhances contrast sensitivity and visual function | LTP enhancement by D-serine alone [3]: did not enhance LTP | effect on LTP suppression by the co-agonist site antagonist 7-chlorokynurenic acid [3]: only produced a reversal of the suppressant effects
